Values belong to the molecule of their own block, whether it stands above or below them.
What was measured:
MCF7 cell line = experiment: MTT assay, MCF7 cell line; type: cell-based, human; conditions: 24 hr treatment, in % (unit assumed); for Cytotoxicity at 5 µg/l: MCF7, 5 µg/l; for Cytotoxicity at 10 µg/l: MCF7, 10 µg/l; for Cytotoxicity at 20 µg/l: MCF7, 20 µg/l
Description: (§1) Determination of the inhibitory effects of compounds on cell growth was performed through the MTT assay. This colorimetric assay is based on the conversion of the yellow tetrazolium bromide (MTT) to a purple formazan derivative by mitochondrial succinate dehydrogenase in viable cells. The protocol was discussed in details in Additional file 1.
(§2) Compounds 1, 4a,b, 7a–c, 7k, l, 9a–c, 14a, 15b, 16a–c were selected to be investigated against three human cancer cell lines MCF7, HepG2 and HCT116 cell lines using MTT assay using doxorubicin as the standard drug. Each point is the mean ± SD (standard deviation) of three independent experiments performed in triplicate, using the prism software program (integrated Graphpad software, version 3).
(§3) Cell lines were used to measure the cell growth effects of the compounds using the MTT assay. This colorimetric assay is depend on the conversion of the yellow tetrazolium bromide (MTT) to a purple formazan derivative by mitochondrial succinate dehydrogenase in living cells. Cell lines were cultured in RPMI-1640 medium supplemented with 10% fetal bovine serum. The antibiotics added were 100 units/ml penicillin and 100 µg/ml streptomycin at 37 °C in a 5% CO2 incubator. Cell lines were seeded in a 96-well plates at a density of 1.0x10^4 cells/well and cultured at 37 °C for 48 h under 5% CO2. After incubation, the cells were treated with different concentrations of compounds and incubated for 24 hr. After 24 hr of drug treatment, 20 µl of MTT solution at 5 mg/ml was added to each well and incubated for 4 hr. 100 µl of dimethyl sulfoxide (DMSO) was added into each well to dissolve the purple formazan formed. The colorimetric assay was measured and recorded at absorbance of 570 nm using a plate reader (EXL 800, USA). Relative cell viability (%) was calculated as (A570 of treated sample/A570 of untreated sample) x 100 [36, 37].

HCT-116 cell line = experiment: MTT assay, HCT-116 cell line; type: cell-based, human; conditions: MTT, 24 hr treatment, in % (unit assumed); for Cytotoxicity at 5 µg/l: HCT116, 5 µg/l; for Cytotoxicity at 10 µg/l: HCT116, 10 µg/l; for Cytotoxicity at 20 µg/l: HCT116, 20 µg/l
Description: as §1, §2, §3

HepG2 cell line = experiment: MTT assay, HepG2 cell line; type: cell-based, human; conditions: MTT, 24 hr treatment, in % (unit assumed); for Cytotoxicity at 5 µg/l: HepG2, 5 µg/l; for Cytotoxicity at 10 µg/l: HepG2, 10 µg/l; for Cytotoxicity at 20 µg/l: HepG2, 20 µg/l
Description: as §1, §2, §3

[1] = target: T1, Tropomyosin receptor kinase A (TrKA) (Homo sapiens, UniProt P04629); experiment: Tropomyosin receptor kinase A (TrKA) inhibitory assay (Kinase-Glo MAX kit); type: biochemical; conditions: in vitro kinase assay, recombinant TrkA
T1 construct: purchased
Text: (§4) The TrkA assay Kit is designed to measure TrkA activity for screening and profiling applications using Kinase-Glo® MAX as a detection reagent. The TrkA Assay Kit comes in a convenient 96-well format, with enough purified recombinant TrkA enzyme, TrkA substrate, ATP and kinase assay buffer for 100 enzyme reactions. The method was discussed in details in the ESI.
as §4, with “reactions.” for “reactions. The method was discussed in details in the ESI.”
The assay protocol: all samples and controls should be tested in duplicate. Dissolve 5x Kinase Assay Buffer 1, ATP, and PTK Substrate Poly (Glu:Tyr 4:1) (10 mg/ml). 2). The master mixture (25 μl per well) was prepared by N wells x (6 μl 5x Kinase Assay Buffer 1 + 1 μl ATP (500 μM) + 1 μl PTK Substrate Poly (Glu:Tyr 4:1) (10mg/ml) + 17 μl water). Add 5 μl of Inhibitor solution of each well labeled as “Test Inhibitor”. For the “Positive Control" and “Blank”, add 5 μl of the same solution without inhibitor (Inhibitor buffer). Prepare 3 ml of 1x Kinase assay buffer 1 by mixing 600 μl of 5x Kinase assay buffer 1 with 2400 μl water 3 ml of 1x Kinase assay buffer is sufficient for 100 reactions. To the wells designated as "Blank", add 20 μl of 1x Kinase assay buffer 1and thaw TrkA enzyme on ice. Upon first thaw, briefly spin tube containing enzyme to recover full content of the tube. Calculate the amount of TrkA required for the assay and dilute enzyme to 5 ng/μl with 1x Kinase assay buffer. Store remaining undiluted enzyme in aliquots at -80°C. Then initiate reaction by adding 20 μl of diluted TrkA enzyme to the wells designated “Positive Control” and "Test Inhibitor Control". Incubate at 30°C for 45minutes and thaw Kinase-Glo Max reagent. After the 45 minute reaction, add 50 μl of Kinase-Glo Max reagent to each well. Cover plate with aluminum foil and incubate the plate at room temperature for 15 minutes. Immediately read sample in a luminometer or microtiter-plate capable of reading chemiluminescence. “Blank” value is subtracted from all readings.

T1 sequence (P04629 33-796): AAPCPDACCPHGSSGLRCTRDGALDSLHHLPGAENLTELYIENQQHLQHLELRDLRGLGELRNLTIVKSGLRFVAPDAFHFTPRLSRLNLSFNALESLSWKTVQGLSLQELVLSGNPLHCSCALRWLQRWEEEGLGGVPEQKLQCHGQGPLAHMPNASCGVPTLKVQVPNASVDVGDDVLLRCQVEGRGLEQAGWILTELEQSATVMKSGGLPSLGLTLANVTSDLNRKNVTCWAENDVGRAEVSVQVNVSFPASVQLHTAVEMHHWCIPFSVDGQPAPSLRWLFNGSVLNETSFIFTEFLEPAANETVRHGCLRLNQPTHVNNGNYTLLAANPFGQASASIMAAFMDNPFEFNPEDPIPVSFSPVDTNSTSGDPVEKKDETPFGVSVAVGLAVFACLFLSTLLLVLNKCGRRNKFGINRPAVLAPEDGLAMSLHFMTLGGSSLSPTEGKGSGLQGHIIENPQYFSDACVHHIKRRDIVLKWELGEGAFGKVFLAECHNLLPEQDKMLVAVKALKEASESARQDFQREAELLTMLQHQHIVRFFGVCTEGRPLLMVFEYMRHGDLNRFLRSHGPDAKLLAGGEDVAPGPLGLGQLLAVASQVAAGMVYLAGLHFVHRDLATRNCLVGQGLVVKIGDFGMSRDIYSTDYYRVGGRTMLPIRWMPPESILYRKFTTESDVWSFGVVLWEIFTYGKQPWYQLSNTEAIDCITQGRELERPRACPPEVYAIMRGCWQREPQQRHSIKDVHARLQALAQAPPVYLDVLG

melting point: 315 °C
Structure (SMILES): COc1ccc(C=C2C(=O)NC(=O)c3c2nn2c(-c4ccccc4)cc(-c4ccccc4)nc32)cc1 [Compound 7l]
Cytotoxicity at 5 µg/l (MCF7 cell line): 40.19
Cytotoxicity at 10 µg/l (MCF7 cell line): 52.28
Cytotoxicity at 20 µg/l (MCF7 cell line): 97.26
Cytotoxicity at 5 µg/l (HCT-116 cell line): 57.14
Cytotoxicity at 10 µg/l (HCT-116 cell line): 61.58
Cytotoxicity at 20 µg/l (HCT-116 cell line): 91.59
Cytotoxicity at 5 µg/l (HepG2 cell line): 40.25
Cytotoxicity at 10 µg/l (HepG2 cell line): 71.84
Cytotoxicity at 20 µg/l (HepG2 cell line): 96.62

melting point: 300 °C
Structure (SMILES): Cc1cc(C)n2nc3c(c2n1)C(=O)NC(=O)C3=NNc1ccccc1 [Compound 9a, 2,4-Dimethyl-7-(2-phenylhydrazono)pyrido[4ʹ,3ʹ:3,4]pyrazolo[1,5-a]pyrimidine-8,10(7H,9H)-dione]
Cytotoxicity at 5 µg/l (MCF7 cell line): 36.10
Cytotoxicity at 10 µg/l (MCF7 cell line): 49.11
Cytotoxicity at 20 µg/l (MCF7 cell line): 75.34
Cytotoxicity at 5 µg/l (HCT-116 cell line): 34.38
Cytotoxicity at 10 µg/l (HCT-116 cell line): 55.47
Cytotoxicity at 20 µg/l (HCT-116 cell line): 65.98
Cytotoxicity at 5 µg/l (HepG2 cell line): 13.11
Cytotoxicity at 10 µg/l (HepG2 cell line): 49.16
Cytotoxicity at 20 µg/l (HepG2 cell line): 79.17

melting point: 285 °C
Structure (SMILES): Cc1ccc(NN=C2C(=O)NC(=O)c3c2nn2c(C)cc(C)nc32)cc1 [Compound 9b, 2,4-Dimethyl-7-(2-(p-tolyl)hydrazono)pyrido[4ʹ,3ʹ:3,4]pyrazolo[1,5-a]pyrimidine-8,10(7H,9H)-dione]
Cytotoxicity at 5 µg/l (MCF7 cell line): 33.82
Cytotoxicity at 10 µg/l (MCF7 cell line): 51.19
Cytotoxicity at 20 µg/l (MCF7 cell line): 72.13
Cytotoxicity at 5 µg/l (HCT-116 cell line): 22.09
Cytotoxicity at 10 µg/l (HCT-116 cell line): 40.50
Cytotoxicity at 20 µg/l (HCT-116 cell line): 59.80
Cytotoxicity at 5 µg/l (HepG2 cell line): 8.46
Cytotoxicity at 10 µg/l (HepG2 cell line): 33.81
Cytotoxicity at 20 µg/l (HepG2 cell line): 73.11

melting point: 305 °C
IC50 [1]: 434 nM
Structure (SMILES): COc1ccc(N/N=C2\C(=O)NC(=O)c3c2nn2c(C)cc(C)nc32)cc1 [Compound 9c, 7-(2-(4-Methoxyphenyl)hydrazono)-2,4-dimethylpyrido[4ʹ,3ʹ:3,4]pyrazolo[1,5-a]pyri-midine-8,10(7H,9H)-dione]
Cytotoxicity at 5 µg/l (MCF7 cell line): 38.17
Cytotoxicity at 10 µg/l (MCF7 cell line): 53.72
Cytotoxicity at 20 µg/l (MCF7 cell line): 87.32
Cytotoxicity at 5 µg/l (HCT-116 cell line): 59.74
Cytotoxicity at 10 µg/l (HCT-116 cell line): 67.13
Cytotoxicity at 20 µg/l (HCT-116 cell line): 89.80
Cytotoxicity at 5 µg/l (HepG2 cell line): 42.88
Cytotoxicity at 10 µg/l (HepG2 cell line): 50.63
Cytotoxicity at 20 µg/l (HepG2 cell line): 86.55

melting point: > 360 °C
Structure (SMILES): Cc1cc(O)n2nc3c(c2n1)C(=O)NC(=O)C3 [Compound 14a, 4-Hydroxy-2-methylpyrido[4ʹ,3ʹ:3,4]pyrazolo[1,5-a]pyrimidine-8,10(7H,9H)-dione]
Cytotoxicity at 5 µg/l (MCF7 cell line): 25.14
Cytotoxicity at 10 µg/l (MCF7 cell line): 48.62
Cytotoxicity at 20 µg/l (MCF7 cell line): 77.19
Cytotoxicity at 5 µg/l (HCT-116 cell line): 28.84
Cytotoxicity at 10 µg/l (HCT-116 cell line): 55.79
Cytotoxicity at 20 µg/l (HCT-116 cell line): 58.72
Cytotoxicity at 5 µg/l (HepG2 cell line): 11.39
Cytotoxicity at 10 µg/l (HepG2 cell line): 40.75
Cytotoxicity at 20 µg/l (HepG2 cell line): 83.75

melting point: 330 °C
Structure (SMILES): Cc1ccc(NN=C2C(=O)NC(=O)c3c2nn2c(O)cc(C)nc32)cc1 [Compound 16b, 4-Hydroxy-2-methyl-7-(2-(p-tolyl)hydrazono)pyrido[4ʹ,3ʹ:3,4]pyrazolo[1,5-a]pyrimidine-8,10(7H,9H)-dione]
Cytotoxicity at 5 µg/l (MCF7 cell line): 54.13
Cytotoxicity at 10 µg/l (MCF7 cell line): 55.27
Cytotoxicity at 20 µg/l (MCF7 cell line): 80.56
Cytotoxicity at 5 µg/l (HCT-116 cell line): 23.18
Cytotoxicity at 10 µg/l (HCT-116 cell line): 52.73
Cytotoxicity at 20 µg/l (HCT-116 cell line): 85.28
Cytotoxicity at 5 µg/l (HepG2 cell line): 18.01
Cytotoxicity at 10 µg/l (HepG2 cell line): 42.54
Cytotoxicity at 20 µg/l (HepG2 cell line): 50.18
